# Experimental data: patent publication US20240092741A1, “COMPOSITION FOR PREVENTION OR TREATMENT OF NEUROFIBROMATOSIS TYPE 2 SYNDROME” (PRG S&TECH INC., priority 2021, published 2024)
# Peptide text beside a SMILES is read from it. * marks the point of attachment. Cbz = O=C(OCc1ccccc1)*
# Key:
# [1] = system: HEI-193 cells; experiment: Western blotting of marker proteins in HEI-193 cells; assay type: cell-based, human; settings: HEI-193 cells pretreated 6 h with leptomycin B 2 ng/ml or MG132 5 μM, then 10 μM compounds 24 h (FIGS. 14F, 14G)
# Procedure: (§1) Cells were harvested and lysed using RIPA buffer [50 mM Tris-Cl, pH 7.5, 150 mM NaCl, 1% NP-40, 0.1% SDS, and 10% sodium deoxycholate] to examine cellular signaling. Protein concentrations in samples were measured using Bio-Rad (Hercules, CA, USA) protein assay kits and BSA standards. The samples (20 μg protein per lane) were separated by sodium dodecyl sulfate-polyacrylamide gel electrophoresis (SDS-PAGE), transferred to Immobilon-P^SQ transfer membranes (Millipore Corp., MA, USA), which were then cultured with 3% skim milk-containing TBS-T buffer (Tris-HCl-based buffer containing 20 mM Tris pH 7.6, 150 mM NaCl, and 0.05% Tween 20) for 1 hour at room temperature and then reacted with primary antibody in TBS-T overnight at 4° C. The membranes were then washed and reacted with secondary horseradish peroxidase (HRP)-conjugated antibodies [goat anti-mouse, goat anti-rabbit, and mouse anti-goat antibodies (Pierce, Thermo Fisher Scientific, Inc., Rockford, IL, USA)] in TBS-T at room temperature for 2 hours. The blots were detected using an HRP-conjugated secondary antibody using ECL kit (Intron, Seoul, Korea).
# [2] = system: RKIP; experiment: RKIP expression by Western blotting in HEI-193 cells; assay type: cell-based, human; settings: compounds 10 μM, 24 h (FIG. 1A) or 72 h (FIG. 2), Western blot
# Procedure: as §1
# Because RKIP degradation in NF2 cells is clearly known (Mol Cancer Ther 17, 2271-2284, 2018), after first treating 260 novel synthetic compounds, RKIP expression was measured in HEI-193, a human NF2 cell line.
# [3] = system: HEI-193 cells; experiment: MTT cell viability assay in HEI-193 cells; assay type: cell-based, human; settings: 10 μM, 48 h
# Procedure: (§2) To measure cell viability, MTT (3-(4,5-dimethylthiazol-2-yl)-2,5-diphenyltetrazolium bromide) assay was used. In other words, the cells were seeded in 96-well plates and treated with the indicated chemicals for a predetermined time. After removing the medium, 200 μl of MTT solution (0.5 mg/ml) dissolved in PBS was added to each well. Plates were then cultured at 37° C. for 4 hours, the MTT solution was removed, the precipitated substances were dissolved using a solution (DMSO:ethanol=1:1), and an amount of formazan dye produced was quantified by measuring the absorbance at 560 nm using an ELISA microplate reader (Thermo Fisher Scientific, MA, USA).
# [4] = system: normal fibroblasts; experiment: MTT cell viability assay in normal fibroblasts; assay type: cell-based, human; settings: 10 μM, 48 h (FIG. 3)
# Procedure: as §2
# [5] = molecular target: T1, interaction between TβR1 and RKIP (Homo sapiens, UniProt P30086+P36897); experiment: GST-pull down assay of TβR1-RKIP interaction; assay type: binding; settings: GST-RKIP beads with TβR1-transfected HEK293 lysates, 5 and 10 μM, 2 h (FIG. 5B)
# T1 construct: host or cells: HEK293 (TβR1 lysate)
# Procedure: For protein-protein interaction analysis, glutathione S-transferase (GST)-pull down assay was performed. For GST-pull down, agarose-bead-conjugated GST-RKIP recombinant protein was reacted with FLAG-tagged TβR1-transfected HEK 293 cell lysates in PBS buffer at 4° C. for 1 hour. Immunoprecipitation (IP) assay was performed by reacting with FLAG-tagged TβR1- or HA-tagged RKIP-transfected HEI-193 cell lysates in PBS buffer. Whole lysates were reacted with appropriate primary antibodies at 4° C. for 2 hours and with agarose-bead-conjugated protein A/G (Invitrogen, Carlsbad, CA, USA) for 2 hours. After centrifugation, the precipitates were washed twice with RIPA buffer and subjected to SDS-PAGE and western blotting analysis.
# [6] = system: mouse schwannoma cells; experiment: Tumorsphere formation assay, mouse schwannoma cells; assay type: cell-based; settings: 10 μM, DMEM/F12 medium
# Procedure: (§3) For tumorsphere formation assay, Hei-193 or mouse schwannoma cells (3×10^6 cells/plate) were cultured in DMEM/F12 medium (supplemented with 2% B27 and 40 ng/ml bFGF) and added with the indicated chemicals on non-coated plates for indicated days.
# [7] = system: SOX2; experiment: SOX2 localization by IF and cell fractionation in HEI-193 cells; assay type: cell-based, human; settings: 2 μM, 24 h, IF and cell fractionation (FIGS. 15C, 15D)
# Procedure: Cells were seeded on cover glass, washed with PBS, fixed with 4% paraformaldehyde (PFA) for 30 minutes at room temperature, and then permeabilized with 0.2% Triton X-100 at room temperature for 5 minutes. After treatment with blocking buffer [3% goat serum diluted in PBS] for 1 hour, cells were reacted with the specified antibody in the blocking buffer overnight at 4° C. Finally, the cells were reacted with secondary antibodies conjugated with FITC or rhodamine at 4° C. for 7 hours. The nuclei were stained with DAPI at room temperature for 10 minutes. After the cells were washed 3 times with PBS, the cover glass was mounted with a mounting solution (H-5501, Vector Laboratories, Cambridgeshire, UK) and immunofluorescence signals were detected using a fluorescence microscopy (Zeiss, Jena, Germany).
# [8] = system: TGF-β signaling; experiment: Smad2/3 phosphorylation after TGF-β1 in HEI-193 cells; assay type: cell-based, human; settings: 10 μM, TGF-β1 2 ng/ml added after 12 h for 12 h (FIG. 5D)
# Procedure: as §1
# [9] = system: schwannoma; settings: Mol Cancer Ther 17, 2271-2284, 2018; cited from earlier work
# [10] = system: HEI-193 cells; experiment: Tumorsphere formation assay, HEI-193 cells; assay type: cell-based, human; settings: HEI-193 cells, 10 μM, DMEM/F12 medium
# Procedure: as §3
# [11] = system: mouse schwannoma cells; experiment: MTT cell viability assay in mouse schwannoma cells; assay type: cell-based; settings: mouse schwannoma (NF2 mouse) cells, 10 μM, 48 h
# Procedure: as §2
# T1 sequence (P30086 whole entry): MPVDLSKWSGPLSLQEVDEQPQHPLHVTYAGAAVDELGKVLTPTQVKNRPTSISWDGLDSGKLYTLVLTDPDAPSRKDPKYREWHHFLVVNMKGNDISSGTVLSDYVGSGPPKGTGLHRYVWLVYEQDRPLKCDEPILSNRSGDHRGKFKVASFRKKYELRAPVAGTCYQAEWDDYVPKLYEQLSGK
# T1 sequence (P36897 34-503): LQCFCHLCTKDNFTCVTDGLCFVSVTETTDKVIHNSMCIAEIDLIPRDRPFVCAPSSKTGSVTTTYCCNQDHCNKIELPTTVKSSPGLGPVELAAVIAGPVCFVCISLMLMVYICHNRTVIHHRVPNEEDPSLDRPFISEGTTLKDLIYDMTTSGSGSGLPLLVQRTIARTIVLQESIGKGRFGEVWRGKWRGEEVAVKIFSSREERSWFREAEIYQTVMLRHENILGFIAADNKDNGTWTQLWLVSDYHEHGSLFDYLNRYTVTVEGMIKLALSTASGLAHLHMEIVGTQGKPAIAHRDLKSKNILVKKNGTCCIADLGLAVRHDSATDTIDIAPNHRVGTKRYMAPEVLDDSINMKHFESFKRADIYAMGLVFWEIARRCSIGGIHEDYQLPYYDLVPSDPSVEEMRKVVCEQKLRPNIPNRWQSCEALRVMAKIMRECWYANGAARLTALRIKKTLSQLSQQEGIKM
smiles,measurement,setting,value
"CCC(=C/[C@H](C)C/C=C/C(C)=C/[C@@H](C)C(=O)[C@@H](C)[C@H](O)[C@@H](C)C/C(C)=C/C(=O)O)/C=C/[C@@H]1OC(=O)C=C[C@@H]1C [leptomycin B, reference compound]",PRG-N-01/TEW7197-induced reduction in SOX2,[1],blocked
CCN(CC)CCOc1ccc(-c2nnn(Cc3ccc(OCc4ccccc4)cc3)c2NC(=O)OC(C)(C)C)cc1 [NF-08001],RKIP expression,[2],induction of RKIP
same,cell viability (MTT),[3],anti-proliferating effect
same,cytotoxicity in normal cells (MTT),[4],exhibited normal cytotoxicity
same,interaction between TβR1 and RKIP,[5],inhibitory effect
"CC(C)C[C@@H](C=O)NC(=O)[C@H](CC(C)C)NC(=O)[C@H](CC(C)C)NC(=O)OCc1ccccc1 [MG312, reference compound] (Cbz-Leu-Leu-Leu-aldehyde)",PRG-N-01/TEW7197-induced reduction in SOX2,[1],blocked
"Cc1cccc(-c2[nH]c(CNc3ccccc3F)nc2-c2ccc3ncnn3c2)n1 [TEW7197, N-((4-([1,2,4]triazolo[1,5-a]pyridin-6-yl)-5-(6-methylpyridin-2-yl)-1H-imidazol-2-yl)methyl)-2-fluoroaniline, reference compound]",tumorsphere formation,[6],weak inhibitory effect
same,localization of nuclear SOX2,[7],moved to the cytosol
same,cell viability (MTT),[3],suppressed cell viability
same,Smad2/3 phosphorylation in response to TGF-β,[8],TGF-β signal inhibition
same,schwannoma in a mouse model with NF2 syndrome,[9],inhibited schwannoma
same,tumorsphere formation,[10],weak inhibitory effect
same,cell viability (MTT),[11],suppressed cell viability
